Laboratory results: article PMC4361473, “A New System for Profiling Drug-Induced Calcium Signal Perturbation in Human Embryonic Stem Cell–Derived Cardiomyocytes” (Journal of Biomolecular Screening, 2015)
Like-named read-outs stand apart in the source and are kept apart here.

Legend:
[1] = Effective therapeutic plasma concentration (ETPC, ETPCunbound); type: in vivo, human; conditions: free plasma concentration calculated from ETPC and free drug %, Supplementary Table 1
Description: There is also the issue regarding the relevance of drug potency determined in vitro to clinical dosing in humans. Guo and colleagues[25],[27] used an impedance-derived index of arrhythmic beating in hSCCMs to derive a predicted proarrhythmic score (PPS) that took into account the therapeutically relevant total concentration of drug in human plasma (defined as Ceff). More recently, Clements and Thomas[13] used a similar approach to generate a predictive risk score (PRS) based on their measurement of field potential duration (FPD) in Cytiva.
Supplementary Table 1. Calculating the free plasma concentration of […]
described by Redfern et al. (Redfern et al. (2003) Cardiovasc. Res. 58:32-45) was used to calculate the levels of free drug (ETPCunbound). ETPC for nadolol and valdecoxib were from Krukemyer et al. (Pharm. Res. (1990) 9:953-956) and Yuan et al. (Drug Metab. Disp. (2002) 30:1013-1021), respectively. The values for drug-protein binding were obtained from DrugBank (www.drugbank.ca).

Cytiva hSCCMs [2] = assay: SALVO profiling of drug-evoked Ca2+ signal perturbation (fluo-4 confocal imaging)
Description: Cytiva hSCCMs were derived from monolayer differentiation of an H7 hESC cell line that had been expanded under feeder-free conditions and then subjected to a proprietary differentiation protocol (GE Healthcare, Piscataway, NJ, USA).[13] […] Cells were thawed and seeded into 7-mm^2 chambers created by the adherence of silicon gaskets (CultureWell MultiWell 3 mm in diameter, 1-mm-depth inserts [Life Technologies]) on glass-bottomed culture chambers (In Vitro Scientific, Sunnyvale, CA, USA) that had been precoated with Matrigel (BD Biosciences, Franklin Lakes, NJ, USA), Franklin Lakes, NJ, USA diluted 1:30 (v/v) in Knockout DMEM (Life Technologies, Carlsbad, CA, USA). […] Cells were allowed to adhere to the coverslip for 2 h before the dish was filled with RPMI/B27 (2 mL). Medium was exchanged every 48 h.
Cells were incubated with fluo-4 AM (5 µM) (Life Technologies) for 1 h at 37°C before coverslips were flooded with RPMI/B27 (2 mL). […] Cells were maintained at 37 °C throughout experiments. […] The application of caffeine (5 mM final concentration) was used to trigger sarcoplasmic reticulum (SR) Ca^2+ release and thereby estimate the intra-SR Ca^2+ store load.
Taking our lead from Uhlen’s method of using spectral analysis to investigate the organization of Ca^2+ signals,[14] we developed SALVO to decode the spatiotemporal patterning of Ca^2+ oscillations within individual cells and across multicellular populations. SALVO outputs 30 parameters that describe Ca^2+ signal organization,[15] but for the purposes of this study, we focused on five parameters: oscillation rate (rate, Hz) and four other parameters that quantify the amplitude and temporal patterning of Ca^2+ oscillation: (1) amplitude heterogeneity index (AHI) and (2) temporal heterogeneity index (THI), statistical assessments of signal amplitude and temporal variability within single cells, respectively; (3) intertransient noise (ITN), defined as the Ca^2+ signal variability occurring between Ca^2+ oscillations and that extends the use of signal variability (SV) to measure point-by-point differences in very low-amplitude Ca^2+ signals[6],[10],[12]; and (4) synchronization, an index of the temporal coincidence of Ca^2+ oscillation maxima occurring across cells in the population. The calculation of these parameters is described in Supplementary Figure S1. SALVO is implemented using a Python-based computer program.[15] The detection of signal maxima and minima over a 30-s period in data obtained from 6 to 20 cells in each instance was performed using SALVO’s autodetection algorithms (based on spline detect or threshold detection methods) or by manual assignation of the start, peak, and end of each Ca^2+ spike. SALVO outputs were archived and interrogated using a custom-built SQL-based database system (DB Miner, CHG, NCS, SBJ).
Baseline assessments of Ca^2+ signals in fluo-4–loaded cells prior to the addition of drug (control) were established as described above.
After each addition and following a period of equilibration (approximately 90 s), fluo-4–dependent Ca^2+ signals were acquired for 30 s. Using this protocol, the same population of cells was imaged throughout the entire drug addition sequence.
In all experiments, operators were blinded to the identities of the drugs under test throughout all phases of postexperimental data analysis.
Supplementary Table 2. EC20 values for Ca2+ perturbation.
Drug concentrations (nM) that produced a 20% change from control values (no drug) were calculated for each SALVO parameter from regression analysis of […]
The effective therapeutic plasma concentration of free drug (ETPCunbound, nM) was calculated in Supplementary Table 1.
Calculate percentage effect size (E) for each SALVO parameter, normalized to Ew = E x λ control conditions, at each drug concentration Effect size (E,%) λ
Cumulative Ew for drug concentrations of 0.1, 1, 10, 100 and 1000 nM for The relationship between E and λ is given by […]

Cytiva hSCCMs [3] = assay: Whole-cell current-clamp recording of spontaneous action potentials (APD90); type: cell-based, human; conditions: drug at EC20 concentration, 3 min; Fridericia-corrected; blebbistatin-immobilized cells
Description: Cells in 35-mm glass-bottomed culture dishes containing a superfusion insert (AutoMate PCP-1; Digitimer Ltd., Welwyn Garden City, UK) were mounted on the stage of an inverted microscope (CKX-41; Olympus, Tokyo, Japan) and were superfused with normal Tyrode (NT) solution (containing [in mM] NaCl, KCl, MgCl2 [1], CaCl2 [2], HEPES [10], glucose; pH 7.4 with NaOH) or NT-containing drugs maintained at 37 °C using a heated jacket.
Cells were whole-cell clamped with 3- to 4-MΩ patches and an intrapipette solution (containing in [mM] KCl, MgCl2 [1.75], CaCl2 [5.37], EGTA [10], HEPES [10], and Na2ATP [4]; pH 7.2 with KOH) in current-clamp (IC) mode using a CV-7B headstage and MultiClamp 700B amplifier controlled by MultiClamp software (Molecular Devices, Sunnyvale, CA). Data were digitized and acquired using a Digidata 1322a card and pClamp software, respectively (Molecular Devices). Action potentials were sampled at a rate of 20 kHz and low pass (Bessel) filtered at 10 kHz.
Spontaneous cell contracture was terminated using blebbistatin (5 µM, 10 min), an agent that inhibits myofilament shortening and thereby negates patch-clamp recording instability but preserves normal Ca^2+ cycling.[20] […] Action potential (AP) recordings from blebbistatin-immobilized cells were taken under control (no-drug) conditions (1 min) and following the switch to drug-containing NT. APD90, corrected for AP cycle length using Fridericia’s method (APD90(corr) = APD90/cycle length^[…]), was calculated from five consecutive APs following a 3-min exposure of the cells to drug.
Figure 4. Investigating the effect of cardiovascular-active drugs on Cytiva APD90. (A) Cells were exposed to drugs at EC20 concentrations for 3 min (Suppl. Table S2). APD90 values were corrected for beat period using Fridericia’s algorithm. Data points represent individual paired experiments (n = 6). Representative control (gray) and drug-treated (black) action potential traces are shown. (B) APD90 plotted as the percentage change relative to the paired control value (no drug). *p < 0.05. **p < 0.01.

[4] = set-up: method as in DrugBank (www.drugbank.ca); conditions: from drug-protein binding values; ref DrugBank (www.drugbank.ca); cited from earlier work
[5] = cited from earlier work; for TdP risk category: categories assigned by Redfern and colleagues
[6] = maximal effective therapeutic plasma concentration, cited from earlier work
[7] = 20% change from control in amplitude heterogeneity index, regression of Figure 3 data
[8] = 20% change from control in intercellular synchronization, regression of Figure 3 data
[9] = 20% change from control in intertransient noise, regression of Figure 3 data
[10] = 20% change from control in temporal heterogeneity index, regression of Figure 3 data
[11] = drug concentration producing a 20% change from control (no drug) in Ca2+ oscillation rate, regression of Figure 3 data
[12] = five-parameter SALVO output integrated over 0.1-1000 nM, normalized to control
[13] = spontaneously oscillating Cytiva, concentrations up to 30 µM
[14] = spontaneously oscillating Cytiva

| Compound | ETPCunbound [1] [nM] | EC20 AHI (Cytiva hSCCMs [2]; [7]) [µM] | EC20 Synch (Cytiva hSCCMs [2]; [8]) [µM] | EC20 ITN (Cytiva hSCCMs [2]; [9]) [µM] | EC20 THI (Cytiva hSCCMs [2]; [10]) [µM] | EC20 Rate (Cytiva hSCCMs [2]; [11]) [µM] | SALVO toxicity score, rank order of the extent of Ca2+ perturbation (Cytiva hSCCMs [2]; [12]) | Effect on Ca2+ handling (SALVO parameters) (Cytiva hSCCMs [2]; [13]) | Effect on APD90 (action potential duration) (Cytiva hSCCMs [3]) | TdP risk category [5] | also measured |
| --- | --- | --- | --- | --- | --- | --- | --- | --- | --- | --- | --- |
| O=C(NCC1CCCCN1)c1cc(OCC(F)(F)F)ccc1OCC(F)(F)F (centres unmarked) [Flecainide, flecainide] | 1159 | 0.26 | > 30 | 2.11 | 0.285 | 0.215 | astemizole > thioridazine > cisapride > flecainide > valdecoxib > sotalol > nadolol | large effect sizes in multiple parameters | no effect | – | Predicted proarrhythmic score (PPS) (Cytiva hSCCMs [2]; PPS = ETPCunbound/EC20): elevated PPS |
| CC(C)(C)NCC(O)COc1cccc2c1CC(O)C(O)C2 (centres unmarked) [Nadolol, nadolol] | 271 | > 30 | > 30 | > 30 | > 30 | > 30 | astemizole > thioridazine > cisapride > flecainide > valdecoxib > sotalol > nadolol | no measurable effect | – | category 5 | Free drug [4]: 70%; ETPC ([6]; ref Krukemyer et al. (Pharm. Res. (1990) 9:953-956)): 387 nM |
| COc1ccccc1OCC(O)CN1CCN(CC(=O)Nc2c(C)cccc2C)CC1 (centres unmarked) [Ranolazine, ranolazine] | – | – | – | – | – | – | – | unchanged Ca^2+ cycling | – | – | Effect on intercellular synchronization (Cytiva hSCCMs [2]; [14]): reduced intercellular synchronization |
| CC(C)NCC(O)c1ccc(NS(C)(=O)=O)cc1 (centres unmarked) [Sotalol, sotalol] | 14733 | 0.21 | > 30 | > 30 | > 30 | > 30 | astemizole > thioridazine > cisapride > flecainide > valdecoxib > sotalol > nadolol | – | – | – | ETPCunbound ([1]; listed as sotalol): 14,733 nM; Predicted proarrhythmic score (PPS) (Cytiva hSCCMs [2]; PPS = ETPCunbound/EC20): ~ 15; Concentration causing an isolated change in AHI (Cytiva hSCCMs [2]; [14]): > 1 µM; Effect on intercellular synchronization (Cytiva hSCCMs [2]; [14]): did not reduce the extent of intercellular synchronization; Therapeutic plasma concentration with QT-prolonging effects ([5]; reported, no reference given): exceeding 10 µM; ETPC ([6]; ref Redfern et al. (2003) Cardiovasc. Res. 58:32-45): 14733 nM |
| CSc1ccc2c(c1)N(CCC1CCCCN1C)c1ccccc1S2 (centres unmarked) [Thioridazine, thioridazine] | 89 | 0.205 | 0.12 | 0.11 | 0.53 | 1.12 | astemizole > thioridazine > cisapride > flecainide > valdecoxib > sotalol > nadolol | large effect sizes in multiple parameters | increased APD90 | – | PPS rank order (Cytiva hSCCMs [2]; PPS = ETPCunbound/EC20): thioridazine > cisapride > valdecoxib |
| Cc1onc(-c2ccccc2)c1-c1ccc(S(N)(=O)=O)cc1 [Valdecoxib, valdecoxib] | 45 | – | – | – | – | – | – | – | no effect | – | EC20 AHI (Cytiva hSCCMs [2]): 0.685 µM; EC20 ITN (Cytiva hSCCMs [2]): > 30 µM; EC20 Rate (Cytiva hSCCMs [2]): 9.87 µM; EC20 Synch (Cytiva hSCCMs [2]): > 30 µM; EC20 THI (Cytiva hSCCMs [2]): 12.8 µM; Effect on Ca2+ handling (SALVO parameters) (Cytiva hSCCMs [2]): large effect sizes in multiple parameters; PPS rank order (Cytiva hSCCMs [2]): thioridazine > cisapride > valdecoxib; SALVO toxicity score, rank order of the extent of Ca2+ perturbation (Cytiva hSCCMs [2]): astemizole > thioridazine > cisapride > flecainide > valdecoxib > sotalol > nadolol; Free drug [4]: 2%; ETPC ([6]; ref Yuan et al. (Drug Metab. Disp. (2002) 30:1013-1021)): 2257 nM |
| COc1ccc(CCN(C)CCCC(C#N)(c2ccc(OC)c(OC)c2)C(C)C)cc1OC (centres unmarked) [Verapamil, verapamil] | – | – | – | – | – | – | – | no measurable effect | – | – | Concentration reducing the rate of Ca2+ oscillation (Cytiva hSCCMs [2]; [14]): > 10 µM |
| CCCCc1oc2ccccc2c1C(=O)c1cc(I)c(OCCN(CC)CC)c(I)c1 [amiodarone] | – | – | – | – | – | – | – | – | – | category 1 | – |
| CC(CC(c1ccccc1)c1ccccc1)NC(C)(C)C (centres unmarked) [terodiline] | – | – | – | – | – | – | – | – | – | category 2 | – |
